The values below come from patent publication US6358927B1, “Peptide fragments and analogs derived from PBAN 1-33 NH2 for controlling moths” (priority 1994, dated 2002).

Common to all, as to type: in vivo
In experiment [1] the test system is Heliothis peltigera. Kind of experiment: Pheromonotropic bioassay: peptide injected into females, pheromone content (Z11-16:Ald) of the gland measured. Particulars: for biological activity (in words): 10 pmol in the presence of protease inhibitors for 2 hours; for effect of protease inhibitors on the biological activity of the peptide (in words): mixture of carboxypeptidase inhibitors (aprotinin and PMSF) and other protease inhibitors (TLCK, bacitracin) (FIG. 3). How it is done: Structure activity studies were performed by an examination of the pheromonotropic activity of synthetic Hez-PAN (PBAN 1-33 NH2) and ten shorter fragments derived from its N- and C-terminal regions. Activity was tested on Heliothis peltigera using a bioassay as described by Gazit et al; (Insect Biochem., 20, 853-858, 1990). These structures are as follows:
The role of the N-terminus on the onset of the biological activity was examined using a series of peptides lacking 8, 12, 16, and 18 amino acids from their N-terminus [PBAN (9-33) NH2, PBAN (13-33) NH2, PBAN (17-33) NH2 and PBAN (19-33) NH2], respectively. […] Pheromone content was examined two hours post-injection. […] The N-terminal region may provide stability against proteolytic degradation or alternatively may play a secondary structural role.
Pheromonotropic activity was determined by injecting the peptides, dissolved in buffer phosphate to 3.5-4.5 days old females during daylight for two hours. Pheromone content is represented by the amount of the major pheromone component Z11-16:Ald.

Experiment [2] has as its system Heliothis peltigera. The experiment in a line: Inhibition of pheromonotropic activity evoked by PBAN (1-33) NH2 (co-injection of free acid fragments or antiserum). As to conditions: for inhibitory activity on pheromonotropic activity evoked by PBAN (1-33) NH2 (in words): injected together with 1 pmol PBAN (1-33) NH2. How it is done:
Structure activity studies were performed by an examination of the pheromonotropic activity of synthetic Hez-PAN (PBAN 1-33 NH2) and ten shorter fragments derived from its N- and C-terminal regions. Activity was tested on Heliothis peltigera using a bioassay as described by Gazit et al; (Insect Biochem., 20, 853-858, 1990).

Experiment [3] deals with Spodoptera littoralis larvae. Kind of experiment: Melanotropic bioassay: cuticular melanization in ligated larvae. As to conditions: for Non pigmented area / Pigmented area: 10 pmol injected, ligated larvae, computerized optical density scanner; for cuticular melanization (in words): injection into ligated larvae, compared with ligation or buffer injection. How it is done: Structure activity studies were also performed with respect to the melanotropic activity of synthetic Hez-PBAN. All the fragments that were tested for their pheromonotropic activity were also tested for their melanotropic activity. Studies were performed on Spodoptera littoralis larvae using a quantitative bioassay (Altstein et al., Peptides, submitted, 1994) which examines the ability of PBAN fragments to induce cuticular melanization in ligated larvae. Ligated larvae produce smaller amounts of melanin compared to untreated larvae (Table 4) as a result of a reduction in their endogenous PBAN. Under the tested conditions ligation caused a significant, but not complete, reduction in cuticular melanization. This incomplete reduction may result from the presence of PBAN in ganglia which were not affected by the ligation or from the presence of another hormone or neuropeptide that affects this process.
Pigmented and non-pigmented areas were determined by a computerized optical density scanner as described by Altstein et al., (Peptides, submitted, 1994).

Experiment [4] concerns Heliothis peltigera. The experiment in a line: Pheromonotropic bioassay: peptide injected into females, pheromone content (Z11-16:Ald) of the gland measured. Particulars: shortly after injection (15-30 min) (FIG. 5).
Where [5] appears, read: Dose of 1 pmol, injected in phosphate buffer to 3.5-4.5 days old females during daylight for two hours.
[6] abbreviates: Dose of 10 pmol, injected in phosphate buffer to 3.5-4.5 days old females during daylight for two hours.
The mark [7] stands for this setting: concentrations ranging from 1-100 pmol, tested 2 hours post injection (FIG. 4).
Where [8] appears, read: C-terminally free acid peptides, 10 pmol, in the presence of protease inhibitors for 2 hours.
[9] abbreviates: free acid fragment at 10 pmol injected together with PBAN (1-33) NH2 at 1 pmol.
The mark [10] stands for this setting: 1 pmol, pheromone content two hours post-injection.

For the substance “H-Thr-Lys-Tyr-Phe-Ser^30-Pro-Arg-Leu^33-NH2 (H-TKYFSPRL-NH2) [PBAN (26-33) NH2]”, the “Pheromone content Z11-16:Ald ng/gland ± SE” value in the experiment on Heliothis peltigera [1] (setting [5]) was 8.9 ± 3.5 d ng/gland; in the experiment with Heliothis peltigera [1] (setting [6]) it was 12.2 ± 3.1 c′ ng/gland. In addition, the “pheromonotropic activity (in words)” value in the experiment on Heliothis peltigera [1] (setting [7]) is given as “active only at high doses (100 pmol)”.
Turning to “H-Pro-Ala^10-Asp-Gln-Glu-Met-Tyr-Arg-Gln-Asp^18-COOH (H-PADQEMYRQD-OH) [PBAN (9-18) COOH]”, the “biological activity (in words)” value in the experiment with Heliothis peltigera [1] is listed as “lack any biological activity”. In the experiment with Heliothis peltigera [1] (setting [8]), the “Pheromone content Z11-16:Ald ng/gland ± SE” value is on record as less than 1 ng/gland. In addition, the “inhibition of the pheromonotropic activity” value with Heliothis peltigera [2] (100 pmol of fragment together with 0.5 pmol PBAN (1-33) NH2 (FIG. 6)) stood at 40%. For the same substance, in the experiment on Heliothis peltigera [2] (setting [9]), the “Inhibition (% of cont)” value came to 35% and the “Pheromone content Z11-16:Ald ng/gland ± SE” value turned out to be 108.1 ± 18.0 ng/gland. For the same substance, in experiment [3], the Non pigmented area is 25%, the Pigmented area was determined as 75% and the “cuticular melanization (in words)” value is “significant decrease”.
For the substance “H-Tyr-Phe-Ser^30-Pro-Arg-Leu^33-NH2 (H-YFSPRL-NH2) [PBAN (28-33) NH2]”, the “pheromonotropic activity (in words)” value is recorded as “does not differ significantly from that of the full length PBAN (1-33) NH2” in the experiment with Heliothis peltigera [4] and “active only at high doses (100 pmol)” in the experiment on Heliothis peltigera [1] (setting [7]). Also, the “Pheromone content Z11-16:Ald ng/gland ± SE” value in the experiment with Heliothis peltigera [1] (setting [5]) came out at 5.6 ± 1.7 d ng/gland; in the experiment on Heliothis peltigera [1] (setting [6]), 12.7 ± 4.9 c′ ng/gland.
In the case of “H-Glu-Met-Tyr-Arg-Gln-Asp-Pro-Glu^20-Gln-Ile-Asp-Ser-Arg-Thr-Lys-Tyr-Phe-Ser^30-Pro-Arg-Leu^33-NH2 [PBAN (13-33) NH2]”, the “Pheromone content Z11-16:Ald ng/gland ± SE” value with Heliothis peltigera [1] (setting [5]) is reported as 4.1 ± 3.0 d ng/gland; in the experiment with Heliothis peltigera [1] (setting [6]) it was 180.2 ± 47.3 a′ ng/gland.
The corresponding values for “H-Gln-Asp-Pro-Glu^20-Gln-Ile-Asp-Ser-Arg-Thr-Lys-Tyr-Phe-Ser^30-Pro-Arg-Leu^33-NH2 [PBAN (17-33) NH2]” are 24.1 ± 5.7 c ng/gland and 196.9 ± 40.7 a′ ng/gland.
With “H-Pro-Ala^10-Asp-Gln-Glu-Met-Tyr-Arg-Gln-Asp-Pro-Glu^20-Gln-Ile-Asp-Ser-Arg-Thr-Lys-Tyr-Phe-Ser^30-Pro-Arg-Leu^23-COOH (H-PADQEMYRQDPEQIDSRTKYFSPRL-OH) [PBAN (9-33) COOH]”, in the experiment with Heliothis peltigera [1], the “biological activity (in words)” value is given as “lack any biological activity”. Further, the “Pheromone content Z11-16:Ald ng/gland ± SE” value in the experiment on Heliothis peltigera [1] (setting [8]) is listed as less than 1 ng/gland. In the experiment on Heliothis peltigera [2] (setting [9]), the “Inhibition (% of cont)” value came out at 7% and the “Pheromone content Z11-16:Ald ng/gland ± SE” value was 154.7 ± 22.2 ng/gland. For the same substance, in the experiment on Heliothis peltigera [2], the “inhibitory activity on pheromonotropic activity evoked by PBAN (1-33) NH2 (in words)” value (from here on “inhibitory activity”) is “did not show any inhibitory activity”.
Consider “H-Pro-Ala^10-Asp-Gln-Glu-Met-Tyr-Arg-Gln-Asp-Pro-Glu^20-Gln-Ile-Asp-Ser-Arg-Thr-Lys-Tyr-Phe-Ser^30-Pro-Arg-Leu^33-NH2 [PBAN (9-33) NH2]”, for which the “pheromonotropic activity (in words)” value with Heliothis peltigera [1] (setting [10]) is reported as “active as PBAN (1-33) NH2”. Also, the “Pheromone content Z11-16:Ald ng/gland ± SE” value in the experiment with Heliothis peltigera [1] (setting [5]) is listed as 143.7 ± 29.6 a ng/gland; in the experiment on Heliothis peltigera [1] (setting [6]), 168.0 ± 9.2 a′ ng/gland.
Regarding “H-Leu^1-Ser-Asp-Asp-Met-Pro-Ala-Thr-Pro-Ala^10-Asp-Gln-Glu-Met-Tyr-Arg-Gln-Asp-Pro-Glu^20-Gln-Ile-Asp-Ser-Arg-Thr-Lys-Tyr-Phe-Ser^30-Pro-Arg-Leu^33-NH2 [PBAN (1-33) NH2, reference compound]”, the “Pheromone content Z11-16:Ald ng/gland ± SE” value in the experiment with Heliothis peltigera [1] (setting [5]) was 200.7 ± 40.7 a ng/gland. The “Pheromone content Z11-16:Ald ng/gland ± SE” value in the experiment with Heliothis peltigera [1] (setting [6]) was 225.2 ± 51.4 a′ ng/gland. For the same substance, the “effect of protease inhibitors on the biological activity of the peptide (in words)” value in the experiment on Heliothis peltigera [1] is reported as “significant stimulation in its activity”. Also, the “Pheromone content Z11-16:Ald ng/gland ± SE” value in the experiment on Heliothis peltigera [2] (PBAN (1-33) NH2 alone at 1 pmol (control of Table 3)) was found to be 165.0 ± 21.0 ng/gland. Also, in experiment [3], the Non pigmented area is listed as 4%, the Pigmented area is on record as 96% and the “cuticular melanization (in words)” value is given as “significant increase”.
“H-Pro-Glu^20-Gln-Ile-Asp-Ser-Arg-Thr-Lys-Tyr-Phe-Ser^30-Pro-Arg-Leu^33-NH2 [PBAN (19-33) NH2]”: the “pheromonotropic activity (in words)” value in the experiment with Heliothis peltigera [1] (setting [10]) was “low activity”. In addition, the “Pheromone content Z11-16:Ald ng/gland ± SE” value worked out at 52.7 ± 21.0 b ng/gland in the experiment with Heliothis peltigera [1] (setting [5]) and 133.8 ± 15.7 b′ ng/gland with Heliothis peltigera [1] (setting [6]).
Consider “H-Leu^1-Ser-Asp-Asp-Met-Pro-Ala-Thr-Pro-Ala^10-Asp-Gln-Glu-Met-Tyr-Arg-Gln-Asp-Pro-Glu^20-Gln-Ile-Asp-Ser-Arg-Thr-Lys-Tyr-Phe-Ser^30-Pro-Arg-Leu^33-COOH [PBAN (1-33) COOH]”, for which the “pheromonotropic activity (in words)” value with Heliothis peltigera [1] (10 pmol) is “completely inactive”. The “Pheromone content Z11-16:Ald ng/gland ± SE” value is on record as 1.4 ± 0.76 ng/gland in the experiment on Heliothis peltigera [1] (setting [8]) and 170.2 ± 24.2 ng/gland with Heliothis peltigera [2] (setting [9]). Also, the “effect of protease inhibitors on the biological activity of the peptide (in words)” value in the experiment on Heliothis peltigera [1] is “did not enhance”. In the experiment with Heliothis peltigera [2] (setting [9]), the “Inhibition (% of cont)” value was determined as 0%. For the same substance, the “inhibitory activity” value in the experiment with Heliothis peltigera [2] is “did not show any inhibitory activity”.
In the case of “H-Pro-Glu^20-Gln-Ile-Asp-Ser-Arg-Thr-Lys-Tyr-Phe-Ser^30-Pro-Arg-Leu^33-COOH [PBAN (19-33) COOH]”, the “biological activity (in words)” value in the experiment with Heliothis peltigera [1] is “lack any biological activity”. For the same substance, in the experiment on Heliothis peltigera [1] (setting [8]), the “Pheromone content Z11-16:Ald ng/gland ± SE” value is less than 1 ng/gland. Besides, in the experiment with Heliothis peltigera [2] (setting [9]), the “Inhibition (% of cont)” value came to 27% and the “Pheromone content Z11-16:Ald ng/gland ± SE” value came out at 120.4 ± 29.2 ng/gland. Moreover, the “inhibitory activity” value in the experiment on Heliothis peltigera [2] is “did not show any inhibitory activity”.
